From patent US20060150260A1, “Genes related to drug resistance” (Northwestern University, priority 2004, published 2006)

Experiments:
Assay type in all cases: cell-based, human
[1] = tested on: MCF-7 cells infected with cDNA inserts B4, B6, D10, E5; test: Colony forming assay after 4OHTAM treatment, cDNA (RIG)-containing populations
Method: (§1) Colony Forming Assay: five hundred cells were plated per 60 mm plate and allowed to recover overnight. […] Treatment continued for 14 days with media replacement every two days; then cells were allowed to recover for two weeks, fixed with alcohol and stained with crystal violet (2% w/v). Colonies (over 150 cells per group) were counted. Experiments were done in triplicate.
(§2) Resistance was determined by colony-forming assay as described in Materials and Methods: plates were stained, and colonies were counted (FIG. 2B); results of the experiment were plotted (FIG. 2C). […] In heterogeneous populations the level of resistance is lower than in single-cell clones (presence of cells without inserts, different levels of expression, etc), so resistance induced by selected cDNAs in individual cells can be much higher. As selected cDNAs induced resistance to 4OHTAM, they were considered to be resistance-inducing genes (RIGs).

MCF-7 cells [2] = test: Cell growth with 4OHTAM; set-up: cell growth: dose or concentration left out as unconfirmed
Method: Cells: MCF-7 (ATCC: HTB-22) cells were grown in Dulbecco's Modified Eagle's medium, 2 mM glutamine, 0.1 mM non-essential amino acids, 10 units/ml of penicillin, 10 μg/ml of streptomycin (all—Invitrogen, Calif.), supplemented with 10% fetal bovine serum (HyClone, Utah), 6 μg/ml of insulin (Sigma, Mo.), 30 μg/ml of fungin, and 10 μg/ml of plasmocin (both—InvivoGen, Calif.). 4-Hydroxytamoxifen (Sigma, Mo.) was used as 10 mM stock solution in ethanol and stored at −20° C.
To gain a better understanding of changes induced by the RIGs, cell growth of RIGs-expressing populations was evaluated with and without 4OHTAM (FIG. 3). In drug-free media the proliferation rate of the B4 RIG-expressing cells was at least equal to parental MCF-7 cells or GFP-expressing control, while for B6, D10 and E5 the proliferation rate was higher (FIG. 3A). […] It is contemplated that cessation of growth for parental and control cells reflects terminal damage and initial stages of cellular demise, whereas for RIG E5-expressing cells cessation of growth is a protective response to drug exposure.

MCF-7 cells [3] = test: Apoptosis check: propidium iodide DNA content (FACS) and DNA ladder
Method: Cell staining. Propidium iodide (DNA content): cells were permeabilized with cold EtOH, incubated with propidium iodide/RNase staining buffer (BD Bioscience, Calif.) for 15 min at room temperature, and analyzed by flow cytometry.
(§3) Flow Cytometry was performed using a Beckman Coulter Epics XL-MCL (Beckman, Fla.) with System II v. 3.0 software and CYAN (DakoCytomation, Colo.) and Summit v. 3.3 software.

[4] = tested on: B6-containing MCF-7 cells; test: Mitochondrial mass, MitoFluor 589 staining, flow cytometry; conditions: 4OHTAM for 72 hr
Method: MitoTracker Red CMXRos (mitochondrial membrane potential) and MitoFluor 589 (mitochondrial mass detection): both dyes were obtained from Molecular Probes, Calif., and added to cells (250 nM final concentration) for 25 min at 37° C. in the CO2 incubator. Cells were then trypsinized and analyzed by flow cytometry or by fluorescent microscope.
as §3
The fate of mitochondria was also examined in experiments assessing mitochondrial activity (FIG. 7C). […] The intracellular content of this organelle on a per cell basis remains fairly constant with only insignificant fluctuations (FIG. 7B), indicating a tight control of the number of mitochondria per cell. 1S A population of B6-containing cells treated with 4OHTAM for 72 hr contains approximately 30% of cells with reduced mitochondrial content (67% have normal mitochondrial content), which is close to the distribution of parental MCF-7 cells treated for 48 hr (FIG. 7B). At the same two timepoints mitochondrial activity distributions are vastly different: a separate low-activity peak for MCF-7 and a barely noticeable asymmetry (“shoulder”) for B6-cells (FIG. 7C). The present invention is not limited to a particular mechanism. […]

[5] = tested on: GFP-expressing MCF-7 control cells; test: Colony forming assay after 4OHTAM treatment, GFP control; conditions: 7.5 µM of 4OHTAM, 14 days treatment
Method: as §1, §2

With 4-Hydroxytamoxifen [4OHTAM] the “resistance of cDNA-expressing cells relative to control (EGFP-only) cells” value ([1]; 7.5 μM 4OHTAM, colony-forming assay) was “five-six times more resistant”, the “survival of populations, colony formation assay” value ([1]; cDNA-containing populations, 7.5 µM of 4OHTAM, 14 days treatment) was about 65% and the cell proliferation (MCF-7 cells [2]; 10 mM 4OHTAM, MCF-7 cells) was “blocked”. For the same substance, the cell growth (MCF-7 cells [2]; RIGs-containing and parental cells) was “inhibited”, the “DNA fragmentation pattern (DNA ladder)” value (MCF-7 cells [3]; genomic DNA of 4OHTAM-treated cells) was “no characteristic DNA fragmentation pattern (DNA ladder) was detected” and the “apoptotic sub-G1 peak in FACS profiles” value (MCF-7 cells [3]; up to 20 μM 4OHTAM) was “No evidence was found of a characteristic sub-G1 peak”. The “cells with normal mitochondrial content” value [4] was 67%, the “cells with reduced mitochondrial content” value [4] was “approximately 30%” and the “survival of GFP-expressing control, colony formation assay” value [5] was over 10%.
